The record followed here is patent publication US20230295152A1 (SENDA BIOSCIENCES, INC., priority 2019, published 2023).

Each structure is given as a SMILES string. In brackets after ≈: the same amount, converted by molar mass. Read-outs that look alike come from different tables or passages of the source. Bounds are passed on as bounds.

In one data set the target is T1, AHR (Homo sapiens, UniProt P35869).
T1 construct: other cell line with a DRE-luciferase reporter stably transfected; endogenous in cells; host or cells: HepG2 AhR-Lucia reporter cells
T1 sequence (P35869 11-848): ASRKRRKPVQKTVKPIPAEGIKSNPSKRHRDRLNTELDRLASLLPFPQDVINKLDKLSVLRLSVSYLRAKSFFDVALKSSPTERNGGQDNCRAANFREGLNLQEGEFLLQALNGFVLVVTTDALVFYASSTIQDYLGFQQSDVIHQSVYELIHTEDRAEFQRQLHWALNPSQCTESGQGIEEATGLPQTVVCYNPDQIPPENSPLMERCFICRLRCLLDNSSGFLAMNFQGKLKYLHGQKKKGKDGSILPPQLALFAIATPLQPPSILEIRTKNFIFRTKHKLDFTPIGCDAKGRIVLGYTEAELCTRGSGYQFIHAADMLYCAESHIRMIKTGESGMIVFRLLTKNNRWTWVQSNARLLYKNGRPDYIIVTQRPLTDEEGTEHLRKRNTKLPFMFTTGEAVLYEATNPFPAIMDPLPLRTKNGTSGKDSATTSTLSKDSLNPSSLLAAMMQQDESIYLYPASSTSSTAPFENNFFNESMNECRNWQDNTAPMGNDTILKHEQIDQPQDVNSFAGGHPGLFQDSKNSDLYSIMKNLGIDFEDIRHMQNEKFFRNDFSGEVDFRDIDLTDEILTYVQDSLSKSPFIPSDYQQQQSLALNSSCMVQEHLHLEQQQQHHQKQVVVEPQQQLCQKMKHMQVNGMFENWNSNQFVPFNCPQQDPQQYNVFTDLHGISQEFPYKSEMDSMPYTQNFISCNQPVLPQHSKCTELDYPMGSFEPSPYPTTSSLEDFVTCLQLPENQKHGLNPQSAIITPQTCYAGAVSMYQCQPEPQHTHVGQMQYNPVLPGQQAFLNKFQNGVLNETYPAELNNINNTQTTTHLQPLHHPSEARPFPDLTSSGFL
Kind of data set: DRE-Luciferase Reporter Assay, HepG2 AhR-Lucia reporter cells. As to conditions: with AHR activating ligand at EC50, read-out: HepG2-Luc IC50. The data set is classed as cell-based. An outline of the steps: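 Antagonism read as inhibition of agonist-driven secreted luciferase in stably DRE-reporter-transfected cells such as HepG2 AhR-Lucia. Agonist ligand at EC50 concentration added 1 hr post-plating alongside antagonist (log series, top 100 uM); supernatant read at 24 or 48 h, IC50 derived against agonist-only maximum.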

Data set [1] can be described thus: Solubility Determination Assay in PBS pH 1.6 and pH 7.4. The data set is classed as physicochemical. To be noted: PBS buffer, aqueous buffer, kinetic from dmso stock. An outline of the steps:
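Compounds from 10 mM DMSO stock diluted into PBS pH 1.6 or pH 7.4 (15 μL into 485 μL), stirred 2 hours, then filtered. Filtrate quantified by LC-MS/MS against a standard of known concentration with internal standard; single determination.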

Where [2] appears, read: PBS pH 7.4, 25° C., read-out: Aq. Solubility at pH = 7.4.
The mark [3] stands for this setting: PBS pH 1.6, 25° C., read-out: Aq. Solubility at pH = 1.6.

With `C[C@H](n1cnc2c(-c3cnn(C)c3)nc(-c3ccc(Cl)cc3)cc2c1=O)C(C)(C)O` [Compound 30], the IC50 at AHR is less than 100 nM. In addition, the solubility at 2 h in data set [1] (setting [2]) was in the range of 0.1 to 1 µM (≈ 0.0424 to 0.424 µg/mL).

As to `C[C@@H](CO)n1cnc2c(-c3cnsc3)nc(-c3ccc(C(F)(F)F)cn3)cc2c1=O` [Compound 102, (S)-3-(1-hydroxypropan-2-y1)-8-(isothiazol-4-yl)-6-(5-(trifluoromethyl)pyridin-2-yl)pyrido[3,4-d]pyrimidin-4(3H)-one], at AHR, the IC50 was less than 100 nM. Moreover, the solubility at 2 h in data set [1] (setting [3]) and in data set [1] (setting [2]) was 0.1 to 1 µM (≈ 0.0433 to 0.433 µg/mL) in each case.

On to `C[C@@H](CO)n1cnc2c(-c3cnn(C)c3)nc(-c3ccc(C4CC4)nc3)cc2c1=O` [Compound 83], for which, on AHR, the IC50 is less than 100 nM. For the same compound, the solubility at 2 h in data set [1] (setting [3]) and in data set [1] (setting [2]) was no less than 1 µM each time.

With `Cc1ncc(-c2cc3c(=O)n([C@@H](C)CO)cnc3c(-c3cccnc3)n2)s1` [Compound 89], the half-maximal inhibitory concentration (IC50) at AHR is less than 100 nM. The solubility at 2 h in data set [1] (setting [3]) and in data set [1] (setting [2]) was no less than 1 µM each time.

For the compound `O=c1c2cc(-c3ccc(Cl)cc3)nc(-c3cccnc3)c2ncn1C[C@H](O)C(F)(F)F` (single isomer, unassigned) [185 enantiomer 2], the IC50 on AHR was less than 100 nM. For the same compound, the solubility at 2 h in data set [1] (setting [3]) is no less than 1 µM; in data set [1] (setting [2]), 0.1 to 1 µM (≈ 0.0447 to 0.447 µg/mL).

`C[C@@H](CO)n1cnc2c(-c3cccnc3)nc(-c3ccc(C4CC4)nc3)cc2c1=O` [Compound 74]: on AHR, the IC50 is less than 100 nM. Moreover, the solubility at 2 h in data set [1] (setting [3]) and in data set [1] (setting [2]) was no less than 1 µM each time.

As for `C[C@@H](CO)n1cnc2c(-c3cccnc3)nc(-c3ccc(OC(F)(F)F)cc3)cc2c1=O` [Compound 22], at AHR, the IC50 is less than 100 nM. For the same compound, the solubility at 2 h in data set [1] (setting [3]) and in data set [1] (setting [2]) was no less than 1 µM in each case.
